Patent publication US12286423B2, “Antiviral 1,3-di-oxo-indene compounds” (Novartis AG, priority 2020, dated 2025)

What was measured:
Type in all cases: cell-based
HRV B14 = HRV B14 CPE inhibition assay; conditions: Human rhinovirus sp.; HRV B14, cytopathic effect inhibition
Experimental: (§1) Bioactivity of the Compounds of the Invention was Determined Using the Following Methods. Determination of Drug Efficacy Against Picornaviruses Using Cytopathic Effect (CPE) Inhibition Assay
(§2) In the assay, HeLa (human cervical cancer cells), MRC-5 (human fetal lung fibroblast cells), and RD cells (derived from human rhabdomyosarcoma) were employed. For comparison, ribavirin (Riv), Pleconaril (pleco), and […] (BTA) were used as controls. Reagents were dissolved at a concentration of 10-40 mg/ml in 100% dimethyl sulfoxide (DMSO). Water-soluble reagents were dissolved in PBS (−) solution and stored at −20° C. On the day of the experiment, they were used in 3 fold to 5 fold concentrations in such a manner that the concentration of dimethyl sulfoxide in each well was between 0.5% and 1%.
(§3) Pharmaceutical efficacy was determined using a virus-induced cytopathic effect (CPE) inhibition assay. In this regard, after cells suitable for viruses were grown in 96-well plates, dilutions of viruses in DME supplemented with 2% FBS (DME/2% FBS) or MEM supplemented with 2% FBS (MEM/2% FBS) were inoculated in an amount of […] with a concentration corresponding to 100 CCID50 (50% cell culture infective dose) into each well of the plates, and incubated for 30 min-1 hr at 33° C. or 37° C. to allow the viruses to adsorb onto the cells. The culture medium was removed before aliquots of drug dilutions with various concentrations were added in an amount of 100 μl to each well. While HRV (human rhinovirus) was grown at 33° C., the other viruses were incubated in a 37° C. CO2 incubator for 2-3 days. Alternatively, the cells were cultured for 2-3 days without removal of the medium after they were added with 50 μl of each drug dilution having a 2-fold higher concentration and then with 50 μl of the virus dilution. Viruses were incubated in host HeLa cells at 37° C. for 2-3 days in DME/2% or MEM/2% FBS.
(§4) For HeLa cells, the drugs were measured for EC50 (50% maximal effective concentration), which is the concentration of a drug inducing a response halfway between the baseline and maximum, using an MTT assay. With regard to RD and MRC-5 cells, CPE was determined using FDA (Fluorescein diacetate) or MTT. In order to determine the effect of drug toxicity on efficacy results, at the time of inoculation with the virus, mock-infection was also included. A virus-free medium was added to a cell culture, which was then subjected to the same treatment as the mock-infected cells inoculated with the virus. That is, the medium was removed after one hour of incubation, and dilutions of drugs in the medium were added once more. Following incubation for 2-3 days, the cells were observed under a microscope and the drugs were determined for CC50 (50% cytotoxic concentration) at which 50% of the cells were killed, using an MTT assay in which counts of viable cells in mock-infected wells containing drugs were compared to those of viable cells in control wells containing no drugs. In an FDA hydrolysis assay, FDA was added to each well after removal of the medium, and incubated for 20-30 min before fluorescence intensity was measured using a spectrofluorometer to determine CPE in the same manner as in MTT.
(§5) In addition, antiviral effects can be calculated using Mathematical Formula 2 below: Antiviral Effect=[A(Drug/Virus)−A(Virus Control)/A(Cell control)−A(Virus Control)]
(§6) If the survival rate is 100%, its antiviral effect is 100% whereas if the survival rate is 0%, its antiviral effect is none. […]
(§7) Specifically, cells grown to confluence in 96-well plates were infected with 100 50% cell culture infected doses (CCID50) of virus. After an adsorption period of 2 hrs at 37° C., the virus was removed and serial dilutions of the compounds were added. […] After removal of the medium, 90 μl of a culture medium and 10 μl of MTS-phenazine methosulfate (Promega, Leiden, The Netherlands) were added to each well. […]

HRV A29 = HRV A29 CPE inhibition assay; conditions: Human rhinovirus sp.; HRV A29, cytopathic effect inhibition
Experimental: as §1, §2, §3, §4, §5, §6, §7

[1] = Cytotoxicity (CC50) in mock-infected cells, MTT assay; conditions: human, HeLa cells (mock-infected), 50% cytotoxic concentration, read-out: CYTOTOX (CC50 μM)
Experimental: as §4
That is, the survival rate (% survival) of mock-infected cells for cytotoxicity measurement was calculated using the Mathematical Formula 1 below: Cell Drug=Survival by [A(Drug)−A(Background solution)/A(Cell control)−A(Background×100% Solution)]
While 100% cell survival means no cytotoxicity of the drug, the highest cytotoxicity is reflected by 0% cell survival. The 50% cytotoxic concentration was defined as the concentration required to reduce the cell number by 50%. This concentration of the drug is represented as CC50. Higher values mean lower cytotoxicity. […]
In Mathematical Formulae 3 and 4 above, • OD (CC) represents the OD of the background cell culture that is neither induced by a virus nor treated by chemical, • OD (VC) represents the OD of the control cell culture that is induced by a virus but not treated by chemical, • OD (Virus+Compound) represents the OD of the cell culture infected by a virus that has been treated with a concentrated compound, • OD (Compound) represents the OD of the cell culture that has been treated with a concentrated compound only, and • OD (Blank) represents the OD of the well to which only the cell culture has been added.
The effective concentration (EC50) represents the concentration of a drug at which 50% of cells are allowed to survive by CPE of an induced virus, and the cytotoxicity concentration (CC50) represents the concentration of a drug at which a compound has killed 50% of cells, and they were calculated by the logarithmic interpolation.

HRV A16 = HRV A16 CPE inhibition assay; conditions: Human rhinovirus sp.; HRV A16, cytopathic effect inhibition
Experimental: as §1, §2, §3, §4, §5, §6, §7

C15_C3 REPLICON = experiment: C15_C3 replicon assay
HRV A1B = HRV A1B CPE inhibition assay; conditions: Human rhinovirus sp., cytopathic effect inhibition, read-out: HRV A1B_CPE (EC50 μM)
Experimental: as §1, §2, §3, §4, §5, §6, §7

Cc1cc(S(C)(=O)=O)[nH]c1C(=O)NC12C(=O)c3c(N)cccc3C1(O)Oc1cc(C3C[C@H]3C)ccc12 (stereo in doubt) [Example 21, N-(1-amino-4b-hydroxy-7-((1S,2R)-2-methylcyclopropyl)-10-oxo-4b,10-dihydro-9bH-indeno[1,2-b]benzofuran-9b-yl)-3-methyl-5-(methylsulfonyl)-1H-pyrrole-2-carboxamide]
EC50 (HRV B14): 0.016 µM
EC50 (HRV A29): 0.074 µM
CC50 [1]: 37.3 µM
EC50 (HRV A16): 0.026 µM
EC50 (C15_C3 REPLICON): 2.91 µM
EC50 (HRV A1B): 0.07 µM

C[C@@H](c1ccc2c(c1)O[C@]1(O)c3cccc(N)c3C(=O)[C@]21NC(=O)CN1CCC1)C1CC1 [Example 17, N-((4bR,9bR)-1-amino-7-((R)-1-cyclopropylethyl)-4b-hydroxy-10-oxo-4b,10-dihydro-9bH-indeno[1,2-b]benzofuran-9b-yl)-2-(azetidin-1-yl)acetamide]
EC50 (HRV B14): 0.016 µM
EC50 (HRV A29): 0.018 µM
CC50 [1]: 24.5 µM
EC50 (HRV A16): 0.07 µM
EC50 (C15_C3 REPLICON): 1.36 µM
EC50 (HRV A1B): 0.016 µM

C[C@H](c1ccc2c(c1)O[C@]1(O)c3cccc(N)c3C(=O)[C@]21NC(=O)CN1CCC1)C1CC1 [Example 5, N-((4bR,9bR)-1-amino-7-((S)-1-cyclopropylethyl)-4b-hydroxy-10-oxo-4b,10-dihydro-9bH-indeno[1,2-b]benzofuran-9b-yl)-2-(azetidin-1-yl)acetamide]
EC50 (HRV B14): 0.016 µM
EC50 (HRV A29): 0.039 µM
CC50 [1]: 19.2 µM
EC50 (HRV A16): 0.072 µM
EC50 (C15_C3 REPLICON): 1.35 µM
EC50 (HRV A1B): 0.036 µM

Cc1cc(S(C)(=O)=O)[nH]c1C(=O)NC12C(=O)c3c(N)cccc3C1(O)Oc1cc([C@@H]3C[C@@H]3C)ccc12 (stereo partly drawn) [Example 26, N-(1-amino-4b-hydroxy-7-((1R,2S)-2-methylcyclopropyl)-10-oxo-4b,10-dihydro-9bH-indeno[1,2-b]benzofuran-9b-yl)-3-methyl-5-(methylsulfonyl)-1H-pyrrole-2-carboxamide]
EC50 (HRV B14): 0.016 µM
EC50 (HRV A29): 0.274 µM
CC50 [1]: 37.1 µM
EC50 (HRV A16): 0.093 µM
EC50 (C15_C3 REPLICON): 8.37 µM
EC50 (HRV A1B): 0.17 µM

Cc1cc(S(=O)(=O)N2CCN(C)CC2)[nH]c1C(=O)NC12C(=O)c3c(N)cccc3C1(O)Oc1cc([C@H]3C[C@H]3C)ccc12 (stereo partly drawn) [Example 24, N-(1-amino-4b-hydroxy-7-((1S,2R)-2-methylcyclopropyl)-10-oxo-4b,10-dihydro-9bH-indeno[1,2-b]benzofuran-9b-yl)-3-methyl-5-((4-methylpiperazin-1-yl)sulfonyl)-1H-pyrrole-2-carboxamide]
EC50 (HRV B14): 0.016 µM
EC50 (HRV A29): 0.037 µM
CC50 [1]: 28.4 µM
EC50 (HRV A16): 0.039 µM
EC50 (C15_C3 REPLICON): 0.34 µM
EC50 (HRV A1B): 0.016 µM

Cc1c(C(=O)N[C@]23C(=O)c4c(N)cccc4[C@@]2(O)Oc2cc([C@@H](C)C4CC4)ccc23)[nH]c(=O)n1C [Example 18, N-((4bR,9bR)-1-amino-7-((S)-1-cyclopropylethyl)-4b-hydroxy-10-oxo-4b,10-dihydro-9bH-indeno[1,2-b]benzofuran-9b-yl)-1,5-dimethyl-2-oxo-2,3-dihydro-1H-imidazole-4-carboxamide]
EC50 (HRV A29): 0.016 µM
CC50 [1]: 31.8 µM
EC50 (HRV A16): 0.05 µM
EC50 (C15_C3 REPLICON): 1.65 µM
EC50 (HRV A1B): 0.018 µM

Cc1c(S(C)(=O)=O)c[nH]c1C(=O)NC12C(=O)c3c(N)cccc3C1(O)Oc1cc([C@H]3C[C@H]3C)ccc12 (stereo partly drawn) [Example 27, N-(1-amino-4b-hydroxy-7-((1S,2R)-2-methylcyclopropyl)-10-oxo-4b,10-dihydro-9bH-indeno[1,2-b]benzofuran-9b-yl)-3-methyl-4-(methylsulfonyl)-1H-pyrrole-2-carboxamide]
EC50 (HRV B14): 0.016 µM
EC50 (HRV A29): 0.079 µM
CC50 [1]: 40.4 µM
EC50 (HRV A16): 0.084 µM
EC50 (C15_C3 REPLICON): 0.705 µM
EC50 (HRV A1B): 0.02 µM

Cc1cc(S(=O)(=O)N2CCN(C)CC2)[nH]c1C(=O)N[C@]12C(=O)c3c(N)cccc3[C@@]1(O)Oc1cc(OC(C)C)ccc12 (single isomer, unassigned) [Example 19]
EC50 (HRV A29): 0.046 µM
CC50 [1]: 48.3 µM
EC50 (HRV A16): 0.022 µM
EC50 (C15_C3 REPLICON): 0.876 µM
EC50 (HRV A1B): 0.016 µM
